The source of these data is PMC7930471, “Targeting HIF2α-ARNT hetero-dimerisation as a novel therapeutic strategy for pulmonary arterial hypertension” (The European Respiratory Journal, 2021).

One experiment has as its target T1, rat HIF2α (Rattus norvegicus, UniProt Q9JHS1).
T1 construct: gene Epas1; PAS-B domain (rat HIF2α-B, made from the human HIF2α-B expression vector by mutating T262L, I265V and I326V)
In words: isothermal titration calorimetry (iTC200), purified PAS-B domain titrated into PT2567. Format: binding. For orientation: ITC needs no label: the signal is the heat of the interaction.

Another experiment concerns the target T2, HIF2α (Homo sapiens, UniProt Q99814).
T2 construct: gene EPAS1; PAS-B domain (human HIF2α-B)
Described as above. Format: binding.

T1 sequence (Q9JHS1 240-350 limits assumed): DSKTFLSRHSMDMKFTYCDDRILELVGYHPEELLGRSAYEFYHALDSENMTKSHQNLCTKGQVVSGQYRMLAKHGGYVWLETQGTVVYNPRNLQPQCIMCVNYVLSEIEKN
T2 sequence (Q99814 240-350 limits assumed): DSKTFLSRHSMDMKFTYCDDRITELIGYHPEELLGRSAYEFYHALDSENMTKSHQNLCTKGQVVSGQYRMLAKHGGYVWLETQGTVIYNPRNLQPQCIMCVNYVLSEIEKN

As for PT2567, the Kd at rat HIF2α stood at 29 nM; on HIF2α, 30 nM.

By Kd is commonly meant the equilibrium constant for the complex coming apart.
